Data: patent US20220016023A1, “METHOD FOR TREATING MYOPIA AND APPLICATION IN PREPARATION OF MEDICAMENT” (WENZHOU MEDICAL UNIVERSITY, priority 2018, published 2022)
Like-named read-outs stand apart in the source and are kept apart here.

Tested on: form deprivation myopia
Settings: for difference of binocular refractions / difference of binocular axial lengths: 2 weeks after form deprivation, p<0.01; for difference of binocular axial lengths: vehicle 0.17±0.05

Row | Compound | difference of binocular refractions (FDM+Pr (10 μM), FDM+Vehicle −5.98±2.22, FIG. 6A) | difference of binocular axial lengths (FDM+Pr (10 μM), FIG. 6B) | difference of binocular refractions (FDM+NA (0.1 mg), FDM+Vehicle −5.43±1.69, FIG. 5A) | difference of binocular axial lengths (FDM+NA (0.1 mg), FIG. 5B) | choroidal blood flow, fellow eye vs. test eye (after periocular injection of 0.1 mg nicotinic acid, 2 weeks form deprivation, FIG. 5C)
1 | COc1cc2nc(N3CCN(C(=O)c4ccco4)CC3)nc(N)c2cc1OC [prazosin] | −3.26±2.22 D | 0.10±0.06 mm | – | – | –
2 | O=C(O)c1cccnc1 [nicotinic acid] | – | – | −3.43±1.80 D | 0.10±0.06 mm | no statistical difference between two eyes
